Literature values, collected in US20220071922A1, “DELIVERY OF HEALTH BENEFITS THROUGH COMPONENT FORMULATION” (Clear Lake Research, LLC, priority 2018, published 2022).

Columns and labels:
[1] = biological target: CB2 receptors (Homo sapiens, UniProt P34972); details: estimated; times the affinity of CBD
[2] = applied topically
[3] = phytocannabinoids interact with oxygen; without nitrogen overlay

Sequence of CB2 receptors (P34972 whole entry): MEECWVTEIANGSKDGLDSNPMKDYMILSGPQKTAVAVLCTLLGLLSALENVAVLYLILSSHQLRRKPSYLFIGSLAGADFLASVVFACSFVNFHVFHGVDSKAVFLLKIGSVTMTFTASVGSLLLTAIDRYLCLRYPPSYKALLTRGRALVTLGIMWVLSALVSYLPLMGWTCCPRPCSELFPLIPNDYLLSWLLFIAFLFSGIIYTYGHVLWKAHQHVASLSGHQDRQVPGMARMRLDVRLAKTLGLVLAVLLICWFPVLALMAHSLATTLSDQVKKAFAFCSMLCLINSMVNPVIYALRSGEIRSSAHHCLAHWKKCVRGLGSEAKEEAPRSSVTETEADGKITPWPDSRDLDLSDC

Row | SMILES | affinity relative to CBD [1] | time to significant pain relief impact [2] | shelf life [3]
1 | CCCCC/C=C\C/C=C\CCCCCCCC(=O)OC(CO)CO [2-Lineoleoyl-glycerol] | ~1,000 times | – | –
2 | C=C(C)[C@@H]1CCC(C)=C[C@H]1c1c(O)cc(CCCCC)cc1O [CBD, cannabidiol] | – | about 30 minutes | about six
3 | CCCCCCCCCCCCCCCC(=O)OC(CO)CO [2-Palmitolyl-glycerol] | ~1,000 times | – | –
